From ChEMBL document CHEMBL5291721, “A preclinical secondary pharmacology resource illuminates target-adverse drug reaction associations of marketed drugs” (Nat Commun, 2023)

Legend:
[1] = biological target: Histamine H1 receptor (Homo sapiens, UniProt P35367)
[2] = biological target: Glutamate receptor ionotropic, NMDA 1 (Rattus norvegicus, UniProt P35439)
[3] = biological target: Muscarinic acetylcholine receptor M3 (Homo sapiens, UniProt P20309)
[4] = biological target: T1, Gastrin/cholecystokinin type B receptor (Homo sapiens, UniProt P32239)
T1 sequence (P32239 whole entry): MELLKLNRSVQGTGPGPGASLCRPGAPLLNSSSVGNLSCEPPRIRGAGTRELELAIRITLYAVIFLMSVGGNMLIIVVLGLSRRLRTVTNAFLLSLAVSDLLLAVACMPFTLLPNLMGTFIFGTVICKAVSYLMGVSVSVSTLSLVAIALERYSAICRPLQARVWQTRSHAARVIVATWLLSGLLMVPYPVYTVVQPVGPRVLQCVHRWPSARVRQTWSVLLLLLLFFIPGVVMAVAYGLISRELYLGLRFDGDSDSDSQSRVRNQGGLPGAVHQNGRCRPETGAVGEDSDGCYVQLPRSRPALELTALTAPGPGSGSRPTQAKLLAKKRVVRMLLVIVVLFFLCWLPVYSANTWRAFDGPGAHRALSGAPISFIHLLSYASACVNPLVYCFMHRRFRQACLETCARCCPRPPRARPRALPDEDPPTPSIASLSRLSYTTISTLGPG

[5] = biological target: T2, Thromboxane A2 receptor (Homo sapiens, UniProt P21731)
T2 sequence (P21731 whole entry): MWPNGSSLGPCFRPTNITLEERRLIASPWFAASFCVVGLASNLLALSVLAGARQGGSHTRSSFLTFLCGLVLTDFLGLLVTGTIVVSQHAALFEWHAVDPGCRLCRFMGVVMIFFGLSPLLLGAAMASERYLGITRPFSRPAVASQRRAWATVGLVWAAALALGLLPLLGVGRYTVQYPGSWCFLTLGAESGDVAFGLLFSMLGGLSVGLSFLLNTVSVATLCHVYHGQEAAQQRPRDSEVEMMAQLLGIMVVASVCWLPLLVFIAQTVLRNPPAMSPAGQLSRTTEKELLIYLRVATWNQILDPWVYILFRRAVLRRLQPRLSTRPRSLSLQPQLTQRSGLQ

[6] = biological target: T3, B2 bradykinin receptor (Homo sapiens, UniProt P30411)
T3 sequence (P30411 whole entry): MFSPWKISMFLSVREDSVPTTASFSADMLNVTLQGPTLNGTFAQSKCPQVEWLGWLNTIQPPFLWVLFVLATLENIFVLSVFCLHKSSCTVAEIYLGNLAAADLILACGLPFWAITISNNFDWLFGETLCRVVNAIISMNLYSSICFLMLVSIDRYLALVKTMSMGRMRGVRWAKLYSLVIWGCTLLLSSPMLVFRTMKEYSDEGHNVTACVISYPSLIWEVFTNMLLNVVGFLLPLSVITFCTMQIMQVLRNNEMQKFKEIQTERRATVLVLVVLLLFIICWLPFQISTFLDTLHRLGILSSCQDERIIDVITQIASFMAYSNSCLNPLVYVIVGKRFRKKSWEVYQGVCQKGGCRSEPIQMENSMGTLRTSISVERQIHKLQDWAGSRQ

[7] = biological target: T4, Endothelin-1 receptor (Homo sapiens, UniProt P25101)
T4 sequence (P25101 whole entry): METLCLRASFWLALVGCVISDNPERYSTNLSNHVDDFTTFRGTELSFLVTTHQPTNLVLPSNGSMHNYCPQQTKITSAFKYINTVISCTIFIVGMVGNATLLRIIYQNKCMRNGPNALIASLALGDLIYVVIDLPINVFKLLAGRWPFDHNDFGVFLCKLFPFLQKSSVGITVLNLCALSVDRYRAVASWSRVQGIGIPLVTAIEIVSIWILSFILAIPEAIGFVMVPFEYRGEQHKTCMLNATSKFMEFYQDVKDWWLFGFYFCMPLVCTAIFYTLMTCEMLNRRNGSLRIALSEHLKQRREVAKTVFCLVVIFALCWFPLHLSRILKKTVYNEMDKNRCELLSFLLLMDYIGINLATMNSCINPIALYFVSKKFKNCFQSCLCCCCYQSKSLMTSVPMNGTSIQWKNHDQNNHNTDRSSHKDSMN

[8] = biological target: Beta-2 adrenergic receptor (Homo sapiens, UniProt P07550)
Chain of Beta-2 adrenergic receptor (P07550 whole entry): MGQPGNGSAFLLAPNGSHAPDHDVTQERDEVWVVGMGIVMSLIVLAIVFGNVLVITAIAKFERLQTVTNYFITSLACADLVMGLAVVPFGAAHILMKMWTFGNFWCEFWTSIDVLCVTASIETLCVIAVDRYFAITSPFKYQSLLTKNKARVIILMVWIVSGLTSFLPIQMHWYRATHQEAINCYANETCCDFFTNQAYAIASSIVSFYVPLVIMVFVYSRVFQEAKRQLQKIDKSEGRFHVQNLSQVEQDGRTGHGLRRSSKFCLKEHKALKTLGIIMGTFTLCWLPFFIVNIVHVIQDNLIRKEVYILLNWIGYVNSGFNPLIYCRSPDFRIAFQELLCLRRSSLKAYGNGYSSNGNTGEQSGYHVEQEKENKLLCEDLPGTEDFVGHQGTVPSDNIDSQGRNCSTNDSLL

[9] = biological target: Cannabinoid receptor 1 (Homo sapiens, UniProt P21554)
Chain of Cannabinoid receptor 1 (P21554 whole entry): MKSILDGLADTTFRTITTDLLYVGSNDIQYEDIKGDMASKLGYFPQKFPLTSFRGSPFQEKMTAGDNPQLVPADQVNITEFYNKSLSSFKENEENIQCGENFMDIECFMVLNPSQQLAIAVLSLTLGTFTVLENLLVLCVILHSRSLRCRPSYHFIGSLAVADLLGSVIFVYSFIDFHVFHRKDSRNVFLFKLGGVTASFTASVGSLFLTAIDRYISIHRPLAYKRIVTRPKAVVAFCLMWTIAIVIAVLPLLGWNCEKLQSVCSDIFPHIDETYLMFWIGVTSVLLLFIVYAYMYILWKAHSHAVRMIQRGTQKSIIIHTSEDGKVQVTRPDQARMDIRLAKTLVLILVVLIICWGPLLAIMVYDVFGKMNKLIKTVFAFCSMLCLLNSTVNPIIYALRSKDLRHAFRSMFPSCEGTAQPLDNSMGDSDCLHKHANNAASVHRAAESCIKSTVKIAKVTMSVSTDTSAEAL

[10] = biological target: T5, 5-hydroxytryptamine receptor 1A (Homo sapiens, UniProt P08908); format: functional, cell-based
T5 sequence (P08908 whole entry): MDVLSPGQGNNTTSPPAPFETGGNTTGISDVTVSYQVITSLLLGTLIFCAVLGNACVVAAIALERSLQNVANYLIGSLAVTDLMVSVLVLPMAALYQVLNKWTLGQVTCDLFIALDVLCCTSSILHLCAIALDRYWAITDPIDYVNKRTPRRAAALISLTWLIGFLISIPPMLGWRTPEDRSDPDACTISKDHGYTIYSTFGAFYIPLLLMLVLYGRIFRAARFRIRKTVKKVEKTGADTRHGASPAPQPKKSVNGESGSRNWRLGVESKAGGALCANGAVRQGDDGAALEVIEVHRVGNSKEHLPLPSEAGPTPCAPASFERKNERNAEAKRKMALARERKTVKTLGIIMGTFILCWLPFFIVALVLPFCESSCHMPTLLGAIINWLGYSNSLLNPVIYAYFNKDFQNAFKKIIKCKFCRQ

[11] = biological target: Melanocortin receptor 4 (Homo sapiens, UniProt P32245)
Chain of Melanocortin receptor 4 (P32245 whole entry): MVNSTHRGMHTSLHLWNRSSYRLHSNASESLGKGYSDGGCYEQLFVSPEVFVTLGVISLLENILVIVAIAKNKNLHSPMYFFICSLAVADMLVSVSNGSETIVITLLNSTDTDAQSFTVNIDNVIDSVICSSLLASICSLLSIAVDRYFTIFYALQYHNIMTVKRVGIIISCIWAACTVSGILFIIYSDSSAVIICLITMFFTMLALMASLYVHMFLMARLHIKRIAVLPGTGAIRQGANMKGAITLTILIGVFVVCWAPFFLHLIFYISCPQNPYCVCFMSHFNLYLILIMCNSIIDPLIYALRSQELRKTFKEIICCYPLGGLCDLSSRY

[12] = biological target: T5, 5-hydroxytryptamine receptor 1A
[13] = biological target: D(3) dopamine receptor (Homo sapiens, UniProt P35462)
Chain of D(3) dopamine receptor (P35462 whole entry): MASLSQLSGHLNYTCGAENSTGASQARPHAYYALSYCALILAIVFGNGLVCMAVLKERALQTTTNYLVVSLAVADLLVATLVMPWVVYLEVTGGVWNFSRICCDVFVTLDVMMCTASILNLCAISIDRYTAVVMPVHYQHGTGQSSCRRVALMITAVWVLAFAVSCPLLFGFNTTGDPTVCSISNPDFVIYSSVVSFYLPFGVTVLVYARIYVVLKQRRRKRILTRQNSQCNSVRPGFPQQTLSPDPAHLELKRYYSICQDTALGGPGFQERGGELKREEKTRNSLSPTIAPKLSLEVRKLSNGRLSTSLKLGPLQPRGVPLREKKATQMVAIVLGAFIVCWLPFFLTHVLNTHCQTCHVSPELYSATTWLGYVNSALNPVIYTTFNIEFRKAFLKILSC

[14] = biological target: D(1A) dopamine receptor (Homo sapiens, UniProt P21728)
Chain of D(1A) dopamine receptor (P21728 whole entry): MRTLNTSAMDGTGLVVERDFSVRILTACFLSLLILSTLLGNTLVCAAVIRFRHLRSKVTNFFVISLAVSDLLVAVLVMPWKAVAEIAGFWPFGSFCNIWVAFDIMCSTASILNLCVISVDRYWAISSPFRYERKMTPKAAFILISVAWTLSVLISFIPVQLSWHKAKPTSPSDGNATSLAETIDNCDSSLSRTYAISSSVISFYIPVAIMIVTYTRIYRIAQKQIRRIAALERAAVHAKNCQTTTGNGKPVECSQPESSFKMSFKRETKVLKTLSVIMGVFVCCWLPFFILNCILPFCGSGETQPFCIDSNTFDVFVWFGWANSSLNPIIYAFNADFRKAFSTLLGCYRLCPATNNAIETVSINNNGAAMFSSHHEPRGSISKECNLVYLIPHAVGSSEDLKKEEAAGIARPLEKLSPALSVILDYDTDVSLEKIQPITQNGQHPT

[15] = biological target: Sodium-dependent noradrenaline transporter (Homo sapiens, UniProt P23975)
Chain of Sodium-dependent noradrenaline transporter (P23975 whole entry): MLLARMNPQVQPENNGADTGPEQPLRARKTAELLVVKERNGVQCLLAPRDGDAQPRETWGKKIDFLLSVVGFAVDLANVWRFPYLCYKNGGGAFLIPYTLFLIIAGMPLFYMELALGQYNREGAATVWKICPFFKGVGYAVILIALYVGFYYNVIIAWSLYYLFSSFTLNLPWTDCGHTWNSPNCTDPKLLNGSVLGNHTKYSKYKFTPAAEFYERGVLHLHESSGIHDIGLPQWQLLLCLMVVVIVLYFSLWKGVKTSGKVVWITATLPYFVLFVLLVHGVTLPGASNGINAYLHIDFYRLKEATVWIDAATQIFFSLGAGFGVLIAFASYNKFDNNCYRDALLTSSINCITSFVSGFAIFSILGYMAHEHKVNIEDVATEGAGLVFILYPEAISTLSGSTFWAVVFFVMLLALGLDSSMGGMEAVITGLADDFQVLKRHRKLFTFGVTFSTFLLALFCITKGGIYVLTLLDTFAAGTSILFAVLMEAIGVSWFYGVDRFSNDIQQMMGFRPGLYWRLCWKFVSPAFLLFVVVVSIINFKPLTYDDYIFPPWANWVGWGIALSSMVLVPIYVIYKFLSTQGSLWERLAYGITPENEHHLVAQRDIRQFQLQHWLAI

[16] = biological target: Histamine H3 receptor (Homo sapiens, UniProt Q9Y5N1)
Chain of Histamine H3 receptor (Q9Y5N1 whole entry): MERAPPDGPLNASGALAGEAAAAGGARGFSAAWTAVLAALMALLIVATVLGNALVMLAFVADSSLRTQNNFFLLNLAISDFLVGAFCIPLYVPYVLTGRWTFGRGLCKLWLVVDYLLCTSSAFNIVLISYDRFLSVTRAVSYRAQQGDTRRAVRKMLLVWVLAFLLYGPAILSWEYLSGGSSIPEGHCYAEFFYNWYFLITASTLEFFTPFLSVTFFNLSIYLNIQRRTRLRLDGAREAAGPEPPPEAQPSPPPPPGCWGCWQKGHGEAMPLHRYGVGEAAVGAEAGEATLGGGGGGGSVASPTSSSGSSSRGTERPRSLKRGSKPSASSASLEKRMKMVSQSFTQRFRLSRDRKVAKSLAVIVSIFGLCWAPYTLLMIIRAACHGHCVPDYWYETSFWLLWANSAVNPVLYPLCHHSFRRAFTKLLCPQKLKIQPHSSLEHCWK
Further: assay procedure not described here.

Chain of Muscarinic acetylcholine receptor M3 (P20309 whole entry): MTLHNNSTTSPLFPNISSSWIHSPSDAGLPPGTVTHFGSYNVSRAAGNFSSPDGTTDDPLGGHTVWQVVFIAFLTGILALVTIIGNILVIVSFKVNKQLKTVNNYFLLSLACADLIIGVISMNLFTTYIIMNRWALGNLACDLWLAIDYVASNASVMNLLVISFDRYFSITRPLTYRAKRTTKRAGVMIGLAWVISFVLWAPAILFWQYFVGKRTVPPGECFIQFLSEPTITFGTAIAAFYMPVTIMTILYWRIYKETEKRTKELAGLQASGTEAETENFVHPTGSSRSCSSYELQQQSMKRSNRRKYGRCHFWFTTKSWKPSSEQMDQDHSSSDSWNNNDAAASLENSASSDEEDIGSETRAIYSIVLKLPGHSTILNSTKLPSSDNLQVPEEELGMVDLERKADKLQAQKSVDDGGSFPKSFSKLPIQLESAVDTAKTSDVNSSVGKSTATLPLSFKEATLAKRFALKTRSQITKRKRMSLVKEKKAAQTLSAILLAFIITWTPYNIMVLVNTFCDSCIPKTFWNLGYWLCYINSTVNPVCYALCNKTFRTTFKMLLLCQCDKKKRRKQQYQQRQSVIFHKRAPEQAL
Chain of Histamine H1 receptor (P35367 whole entry): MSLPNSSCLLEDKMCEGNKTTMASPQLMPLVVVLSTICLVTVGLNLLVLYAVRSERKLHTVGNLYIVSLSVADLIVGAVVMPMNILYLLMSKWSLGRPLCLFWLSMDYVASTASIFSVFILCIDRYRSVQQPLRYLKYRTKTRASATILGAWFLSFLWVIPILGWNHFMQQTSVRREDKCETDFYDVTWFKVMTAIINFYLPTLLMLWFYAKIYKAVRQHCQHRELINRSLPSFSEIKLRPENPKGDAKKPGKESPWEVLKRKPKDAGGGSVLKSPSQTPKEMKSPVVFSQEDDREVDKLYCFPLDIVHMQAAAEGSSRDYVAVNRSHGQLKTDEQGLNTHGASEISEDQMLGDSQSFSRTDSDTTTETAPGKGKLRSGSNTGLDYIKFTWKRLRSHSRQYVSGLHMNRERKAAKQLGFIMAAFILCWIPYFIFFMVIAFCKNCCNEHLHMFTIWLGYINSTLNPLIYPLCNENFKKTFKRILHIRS

AC50 [1] [µM] | AC50 [2] [µM] | AC50 [3] [µM] | AC50 [4] [µM] | AC50 [5] [µM] | AC50 [6] [µM] | AC50 [7] [µM] | AC50 [8] [µM] | AC50 [9] [µM] | AC50 [10] [µM] | AC50 [11] [µM] | Compound | AC50 [12] [µM] | AC50 [13] [µM] | AC50 [14] [µM] | AC50 [15] [µM] | AC50 [16] [µM]
> 30 | > 30 | > 30 | > 30 | > 30 | > 30 | > 30 | > 30 | > 30 |  |  | CCCCN1C[C@H](O)[C@@H](O)[C@H](O)[C@H]1CO |  |  |  |  | 
 | > 10 |  | > 30 | > 30 | > 30 | > 30 | > 10 | > 10 | > 10 | > 30 | CCOC(=O)[C@H](CCc1ccccc1)N[C@@H](C)C(=O)N1[C@H](C(=O)O)C[C@@H]2CCC[C@@H]21 |  |  |  |  | 
 | > 10 |  | > 10 | > 10 | > 30 | > 30 | > 10 | > 10 | > 10 | > 10 | Cc1ccc(-c2cc(C(F)(F)F)nn2-c2ccc(S(N)(=O)=O)cc2)cc1 [CELECOXIB] |  |  |  |  | 
 | > 10 |  | > 30 | > 30 | > 30 | > 30 | > 10 | > 10 | > 10 | > 30 | CC1=C(C(=O)O)N2C(=O)[C@@H](NC(=O)[C@H](N)c3ccccc3)[C@H]2SC1 [CEPHALEXIN ANHYDROUS] |  |  |  |  | 
 | > 10 |  | > 30 | > 30 | > 30 | > 30 | > 10 | > 10 | > 10 | > 30 | CN(C)CCC(c1ccc(Cl)cc1)c1ccccn1 (configuration not stated) [CHLORPHENIRAMINE] |  |  |  |  | 
 | > 10 |  |  | > 10 | > 10 |  | > 10 | > 10 | > 10 | > 10 | CN(C)/N=N/c1[nH]cnc1C(N)=O [DACARBAZINE] |  |  |  |  | 
 | > 10 |  | > 30 | > 30 | > 30 | > 30 | > 10 | > 10 | > 10 | > 30 | C[C@]12CCC(=O)C=C1CC[C@@H]1[C@@H]2[C@@H](O)C[C@@]2(C)[C@H]1CC[C@]2(O)C(=O)CO [HYDROCORTISONE] |  |  |  |  | 
 | > 30 |  | > 30 | > 30 | > 30 | > 30 | > 30 | > 30 | > 30 | > 30 | CCC(C)n1ncn(-c2ccc(N3CCN(c4ccc(OCC5COC(Cn6cncn6)(c6ccc(Cl)cc6Cl)O5)cc4)CC3)cc2)c1=O (configuration not stated) [ITRACONAZOLE] |  |  |  |  | 
 | > 10 |  |  | > 10 | > 10 |  | > 10 | 12.8 | > 10 | > 10 | Clc1ccc(C(c2ccccc2Cl)C(Cl)Cl)cc1 (configuration not stated) [MITOTANE] |  |  |  |  | 
 | > 10 |  | > 30 | > 30 | > 30 | > 30 | > 10 | > 10 |  | > 30 | CCCN1C[C@H](CSC)C[C@@H]2c3cccc4[nH]cc(c34)C[C@H]21 [PERGOLIDE] |  |  |  |  | 
> 30 | > 30 | > 30 | > 30 | > 30 | > 30 | > 30 | 5.7 | > 30 |  |  | COc1ccccc1OCC(O)CN1CCN(CC(=O)Nc2c(C)cccc2C)CC1 (configuration not stated) [RANOLAZINE] |  |  |  |  | 
> 10 | > 10 | > 30 |  | > 10 | > 10 |  | > 10 | > 10 | > 10 | > 10 | Nc1ccn([C@H]2CC[C@@H](CO)O2)c(=O)n1 [ZALCITABINE] |  |  |  |  | 
> 10 | > 10 | > 30 |  | > 10 | > 10 |  | > 10 | > 10 | > 10 | > 10 | NS(=O)(=O)Cc1noc2ccccc12 [ZONISAMIDE] |  |  |  |  | 

Compound | AC50 [1] [µM] | AC50 [2] [µM] | AC50 [3] [µM] | AC50 [4] [µM] | AC50 [5] [µM] | AC50 [6] [µM] | AC50 [7] [µM] | AC50 [8] [µM] | AC50 [9] [µM] | AC50 [10] [µM] | AC50 [11] [µM] | AC50 [12] [µM] | AC50 [13] [µM] | AC50 [14] [µM] | AC50 [15] [µM] | AC50 [16] [µM]
CCCSc1ccc2nc(NC(=O)OC)[nH]c2c1 [ALBENDAZOLE] |  | > 10 |  |  | > 30 | > 10 |  | > 30 | > 10 | > 10 | > 10 |  |  |  |  | 
CN1C(=O)CCS(=O)(=O)C1c1ccc(Cl)cc1 (configuration not stated) [CHLORMEZANONE] | > 30 | > 10 | > 30 |  | > 10 | > 10 |  | > 10 | > 10 | > 10 | > 10 |  |  |  |  | 
O=P1(NCCCl)OCCCN1CCCl (configuration not stated) [IFOSFAMIDE] |  | > 30 |  | > 30 | > 30 | > 30 |  | > 30 | > 30 | > 30 | > 30 |  |  |  |  | 
c1ccc([C@H]2CN3CCSC3=N2)cc1 [LEVAMISOLE] |  | > 30 |  |  | > 30 |  | > 30 | > 30 | > 30 | > 30 |  |  |  |  |  | 
Cc1cccc(Nc2ccccc2C(=O)O)c1C [MEFENAMIC ACID] |  | > 10 |  |  | > 10 | > 10 |  | > 10 | > 10 | > 10 | > 10 | > 30 | > 30 | > 30 | > 30 | > 30
C[C@@H](O)[C@H]1C(=O)N2C(C(=O)O)=C(S[C@@H]3CN[C@H](C(=O)N(C)C)C3)[C@H](C)[C@H]12 [MEROPENEM] |  | > 10 |  |  | > 10 | > 10 | > 300 | > 10 | > 10 | > 300 | > 10 |  |  |  |  | 
O=C(O[C@H]1C[C@H]2CC[C@@H](C1)[N+]21CCCC1)C(O)(c1ccccc1)c1ccccc1 [TROSPIUM] | 11 | > 30 | 0.0089 | > 30 | > 30 | > 30 |  | > 30 | > 30 | > 30 | > 30 |  |  |  |  | 
